Experimental data taken from patent US5104859A, “Continuous administration of adenosine to reduce pulmonary vascular resistance” (priority 1990, dated 1992).

Experiments:
[1] = system: mean arterial blood pressure; conditions: dogs, cited from earlier work
[2] = Clinical observations during and after cardiopulmonary bypass
Procedure: During cardiopulmonary bypass (CPB), mean arterial blood pressure (MABP) above 70 mmHg was treated with the vasodilator sodium nitroprusside (SNP), except in the final phase or rewarming. CPB was performed with SARN roller pump and a Shiley oxygenator (100A) primed with 2000 ml crystalloid solution (75 mg heparin). The perfusion rate was kept at approximately […] body surface. Moderate hypothermia (25° C.) was induced. Cardioplegia was obtained with Ringer's solution (with added potassium up to 20 mM/1). Heparin (3 mg/kg) was administered as a bolus injection before cannulation. The heparin effect was controlled by measurements of activated clotting time. (Hemocron® Int. Technidyne Corp, USA). […] At the termination of CPB, the heparin effect was antagonized with protamine (c. 1.3 mg/mg heparin). ACT was checked 10-20 min after the protamine injection. ACT values 120 sec were considered satisfactory.
Platelet count (Linson 431 A cell counter) and hematocrit were determined in arterial samples before anesthesia, after thoracotomy, during CPB at 10, 20, 40, 60, 80 and 100 min, 30 min after CPB and on the postoperative day. Platelet counts were expressed in percentage of preanesthesia levels and were corrected for hemodilution. MABP was monitored continuously via a catheter introduced in the radial artery. All patients received hypertonic mannitol (1-1.5 g/kg) during CPB and urine production was calculated as ml/.min of CPB (Table VI).
Postoperative bleeding was measured as the blood loss from the tube drainage from the end of operation until the postoperative morning.
In six cases the plasma adenosine levels were determined by high performance liquid chromatography (HPLC) (Fredholm and Sollevi, J. Physiol. (London), 313: 351-67 (1981) in arterial and in venous (venous lines to the oxygenator) blood. The adenosine metabolites inosine, hypoxanthine and uric acid were also determined by HPLC. The samples were collected as previously described (Sollevi, Acta. Physiol. Scand., 121: 165-72 (1984) at the intervals of 10, 20, 40 and 80 minutes during CPB and 20 minutes after CPB.
Statistical significance (controls v. adenosine group) was determinted with Student's t-test for unpaired data. For significance within the groups the Wilcoxon Rank Sum test was used. p […] 0.05 was regarded as significant.

[3] = human, in vivo
[4] = Purine levels in arterial plasma before, during and after adenosine-induced controlled hypotension (HPLC); conditions: in vivo
Procedure: Blood gases were measured with appropriate electrodes for pH, PCO2, and PO2 (Radiometer, Copenhagen). The hemoglobin concentration was determined spectrophotometrically. Samples for the determination of adenosine and its metabolites were collected as described by Sollevi et al., Acta Physiol. Scand., 120: 171-76 (1984). Adenosine and inosine were purified and analyzed by HPLC as described by Fredholm and Sollevi., J. Physiol. (London), 313: 351-67 (1981). Hypoxanthine, xanthine, and uric acid were analyzed by HPLC according to the method of Schweinsberg and Loo., J. Chromatogr., 181: 103-7 (1980). Arterial levels of dipyridamole were determined by HPLC. J. Chromatogr., 162: 98-103 (1979). Blood lactate was measured according to Tfelt-Hansen and Siggard-Andersen. Scand. Clin. Lab. Invest., 27:15-19 (1971).
Measurements and blood samplings were performed immediately before hypotension, as late as possible during hypotension (1-5 min before terminating the infusion) and approximately 30 min after the hypotensive period.
Dipyridamole (5 mg. per ml) was infused iv (0.3-0.4 mg. per kg. over a period of 5-10 min) approximately 20 minutes prior to the induction of controlled hypotension. […] (See Pedersen, J. Chromatogr., 162: 98-103 (1979).
The infusion was started at a rate of 0.01 mg. per kg. per minute, which was doubled at 15 second intervals until the desired MABP level of 40-50 mmHg was reached. […] Serum creatinine was determined before and on two consecutive days after operation. The standard ECG was recorded the day before and the day after operation.
The statistical significance (control 1 vs. adenosine and control 1 vs. control 2) was determined by Student's t test for paired data. A P value of <0.05 was regarded as significant.
The purine levels of nine of the patients were determined prior to, during and after adenosine-induced controlled hypotension.

[5] = set-up: species or system human; conditions: in vivo
Procedure: The mean hypotensive period was 32±8 min.

[6] = system: systemic arterial blood pressure and central hemodynamics; assay: Controlled hypotension in surgical patients without dipyridamole pretreatment; format: in vivo, human
Procedure: For this indication, adenosine typically is administered intravenously via the left basilic vein or via a central vein in an amount (or at a rate) sufficient to achieve the desired hypotensive effect.
The actual plasma levels of adenosine employed for controlled hypotension will vary, depending upon such factors as the particular patient, the age of the patient and the desired degree of hypotension. […] The hypotensive effect of adenosine was then studied upon this hypotensive dose of dipyridamole.
Subsequent to the tests described above, a 20 mM solution of adenosine in isotonic saline was administered to 50 surgical patients employing techniques similar to those described, except that pretreatment with dipyridamole was omitted.

[7] = system: blood pressure; assay: Control of hypertensive crisis during surgery; format: in vivo, human; conditions: about 0.1 to about 0.2 mg/kg/min
Procedure: Continuous infusion of adenosine can also be employed to control hypertensive crises occurring during surgery. Such crises can occur, for example, as a result of release of catecholamines during surgery on pheochromocytoma--a tumor characterized by the presence of catecholamine--which can cause pulmonary edema and death. At present, this situation is treated prophylactically by pre-administration of alpha- and beta-adrenoceptor blockers or vasodilators, but the effect is often insufficient. […] Amounts of adenosine which are effective in controlling such hypertensive crises will depend on the degree of hypertension. However, as a general rule they are about half of the amounts found useful for controlled hypotension, i.e., in the range of from about 0.1 to about 0.2 mg adenosine per kilogram of body weight per minute.

## Nc1ncnc2c1ncn2[C@@H]1O[C@H](CO)[C@@H](O)[C@H]1O [adenosine]
[1]; 50 ug/kg/minute adenosine
  mean arterial pressure with adenosine after dipyridamole: 40 mm/Hg
[1]; pilot study, as much as
  adenosine dose required for induction of hypotension without dipyridamole: 5 to 10 mg/kg/min
[2]; 100 ug/kg/min, highest such rate in pilot cases
  systemic vasodilation at chosen infusion rate: did not induce systemic vasodilation
[2]; 0.1 mg per kg per min, with range in parentheses
  Preoperative urine production: 4.1 (1.1-9.5) ml/min. CPB
[2]; 500 ml/h in controls, p<0.01
  urine production during CPB: 250 mL/h
[2]; human, in vivo
  MABP during CPB vs placebo: did not differ significantly
  postoperative blood loss vs control: did not differ
[2]; no intergroup difference at end of operation
  MABP after CPB: slightly lower MABP
[2]; one control patient
  patients with transient creatinine elevation: two
[2]; placebo: seven required nitroprusside
  patients requiring vasodilator treatment: No patient
[2]; two postoperative days
  transient elevation of serum creatinine above normal range: 10-20%
[3]
  symptoms in awake patient at higher doses: facial flushing, neck and chest oppression, palpitation and increased rate of respiration
[4]; human, iv
  concentration: 2450 ± 650 nM
[4]
  time for arterial adenosine levels to return to control values after termination of infusion: 3 to 9 min
[5]
  ECG the day after the operation: unchanged
[6]; about 0.2 to about 0.35 mg/kg/min
  mean arterial blood pressure achieved: 40 to 50 mm Hg
[6]; as low as, cannula in left radial artery
  mean arterial blood pressure achieved without significant side effects: 40 millimeters of mercury
[6]; man 0.2 to 0.35 mg/kg/minute
  effective adenosine dose in man relative to dog: 30 to 50 times lower
[7]
  blood pressure in catecholamine-induced hypertensive crisis: rapidly restore blood pressure to normal
